A word on the AUC: it is the area under the concentration-time curve, a measure of exposure. A higher AUC goes with more exposure. Broadly, the IC50 is the concentration that inhibits the measured activity by half. A higher IC50 goes with weaker potency. The term Vd denotes a proportionality between amount in the body and measured concentration, not a real space. High values mean extensive tissue distribution, low ones confinement near the circulation. The term Papp A→B denotes how fast a substance crosses the layer from the apical side. As usually defined, the efflux ratio is a quotient of directional permeabilities that is used to spot active efflux. As a reminder, the clearance is the rate of elimination divided by the concentration. The low end stands for inefficient removal, the high end for efficient removal.

Data set [1] is described as follows: Apparent permeability across basolateral to apical side in human Caco2 cells assessed as drug recovery at 16870 pmol after 2 hrs by LC-MS/MS analysis. Conditions: Caco-2, read-out: Drug recovery. It is filed as ADME, cell-based.
In data set [2] the test system is CAPAN-1. In words: Cell cycle arrest in human Capan1 cells assessed as accumulation at G2/M phase at 10 uM after 72 hrs by propidium iodide-staining based flow cytometry (reference value: 15.26%). It is filed as functional. (In general: Flow cytometry measures light scatter and fluorescence of single cells or particles in a stream.)
The test system of data set [3] is MDA-MB-436. The data set can be described thus: Induction of apoptosis in human MDA-MB-436 cells after 96 hrs by Annexin V-FITC/propidium iodide double-staining based flow cytometery. Type of data set: functional, cell-based.
Data set [4] is described as follows: AUC in Sprague-Dawley rat at 10 mg/kg, po by LC-MS/MS analysis. It is filed as ADME, organism-based. Conditions: in vivo.
Data set [5] has as its system CAPAN-1. In words: Antitumor activity against human Capan1 cells harboring BRCA2 mutant xenografted in nude BALB/cA mouse assessed as tumor growth inhibition at 40 mg/kg, po administered once daily for 21 consecutive days measured twice per week. It is filed as functional. Conditions: CAPAN-1, po, read-out: TGI. In general terms: A xenograft is tissue or cells of one species grown in another, often human tumour cells in immunodeficient mice.

Another data set relates to V79. In words: Cytotoxicity against BRCA2 expressing Chinese hamster V79 cells after 3 days by CCK8 or SRB assay. It is filed as cell-based. Conditions: Cricetulus griseus, V79, 72 h.
In the next data set the test system is Mus musculus. In words: Toxicity in nude BALB/cA mouse xenografted with human MDA-MB-436 cells harboring BRCA1 mutant assessed as weight loss at 50 mg/kg, po administered once daily for 21 consecutive days measured twice per week. Type of data set: organism-based. Conditions: in vivo.
Data set [6] is described as follows: Volume of distribution in Sprague-Dawley rat at 5 mg/kg, iv by LC-MS/MS analysis. Conditions: in vivo. It is filed as ADME, organism-based.
For data set [7], the system named is MDA-MB-436. The data set can be described thus: Induction of apoptosis in human MDA-MB-436 cells assessed as early apoptotic cells at 1 uM after 96 hrs by Annexin V-FITC/propidium iodide double-staining based flow cytometery (reference value: 1.90%). It is filed as functional.
Data set [8] in a line: Apparent permeability across apical to basolateral side in human Caco2 cells after 2 hrs by LC-MS/MS analysis. Type of data set: ADME, cell-based. Conditions: Caco-2.
The nature of data set [9]: Efflux ratio of apparent permeability in human Caco2 cells after 2 hrs by LC-MS/MS analysis. It is filed as ADME, cell-based. Conditions: Caco-2. (In general: Caco-2 cells form a polarised layer with tight junctions and transporters.)
The target of data set [10] is T1, Poly [ADP-ribose] polymerase 1 (Homo sapiens, UniProt P09874). The data set can be described thus: Inhibition of PARP1 in human Capan1 cells assessed as increase in phosphorylated chk1 protein levels at 0.1 to 1 uM after 48 hrs by Western blot analysis. It is filed as cell-based.
T1 sequence (P09874 whole entry): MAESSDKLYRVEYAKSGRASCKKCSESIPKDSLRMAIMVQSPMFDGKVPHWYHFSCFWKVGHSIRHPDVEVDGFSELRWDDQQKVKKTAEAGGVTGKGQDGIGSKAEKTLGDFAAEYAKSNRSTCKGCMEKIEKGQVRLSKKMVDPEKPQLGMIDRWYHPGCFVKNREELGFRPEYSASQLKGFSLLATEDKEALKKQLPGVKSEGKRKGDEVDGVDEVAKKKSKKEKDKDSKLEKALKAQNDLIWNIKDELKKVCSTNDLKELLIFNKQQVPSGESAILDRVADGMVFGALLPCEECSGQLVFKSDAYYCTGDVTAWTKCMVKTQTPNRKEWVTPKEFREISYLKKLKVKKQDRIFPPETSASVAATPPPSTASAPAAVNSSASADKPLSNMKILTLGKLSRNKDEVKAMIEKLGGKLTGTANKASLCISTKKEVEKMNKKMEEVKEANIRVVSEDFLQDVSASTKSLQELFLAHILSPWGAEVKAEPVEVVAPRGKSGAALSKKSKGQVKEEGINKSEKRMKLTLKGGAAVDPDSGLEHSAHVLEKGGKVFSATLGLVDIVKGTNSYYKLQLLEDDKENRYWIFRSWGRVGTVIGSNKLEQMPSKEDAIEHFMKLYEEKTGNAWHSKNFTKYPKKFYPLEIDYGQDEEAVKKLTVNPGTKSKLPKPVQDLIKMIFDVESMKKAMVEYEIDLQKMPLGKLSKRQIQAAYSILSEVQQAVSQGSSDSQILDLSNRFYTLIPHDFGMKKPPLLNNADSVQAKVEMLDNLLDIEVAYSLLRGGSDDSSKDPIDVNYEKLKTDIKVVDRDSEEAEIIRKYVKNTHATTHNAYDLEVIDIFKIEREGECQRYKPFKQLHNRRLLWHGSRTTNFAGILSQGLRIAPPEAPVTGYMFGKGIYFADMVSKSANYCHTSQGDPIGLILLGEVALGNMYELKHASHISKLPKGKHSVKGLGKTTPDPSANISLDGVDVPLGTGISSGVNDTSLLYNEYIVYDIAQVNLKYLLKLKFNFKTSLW
The subject of data set [11] is MDA-MB-436. The data set can be described thus: Induction of apoptosis in human MDA-MB-436 cells assessed as early apoptotic cells at 0.1 uM after 96 hrs in presence of pancaspase inhibitor Z-VAD-FMK by Annexin V-FITC/propidium iodide double-staining based flow cytometery (reference value: 2.32%). Type of data set: functional.
Data set [12] deals with MDA-MB-436. The data set can be described thus: Induction of apoptosis in human MDA-MB-436 cells assessed as late apoptotic cells at 0.1 uM after 96 hrs by Annexin V-FITC/propidium iodide double-staining based flow cytometery (reference value: 5.61%). It is filed as functional.
Data set [13] has as its target T1, Poly [ADP-ribose] polymerase 1. The data set can be described thus: Inhibition of PARP1 (unknown origin) by ELISA.
For data set [14], the system named is CAPAN-1. The data set can be described thus: Cell cycle arrest in human Capan1 cells assessed as accumulation at S phase at 10 uM after 72 hrs by propidium iodide-staining based flow cytometry (reference value: 21.42%). It is filed as functional.
Data set [15] has as its system MDA-MB-436. The data set can be described thus: Induction of apoptosis in human MDA-MB-436 cells assessed as late apoptotic cells at 1 uM after 96 hrs by Annexin V-FITC/propidium iodide double-staining based flow cytometery (reference value: 5.61%). Type of data set: functional.
A short description of data set [16]: Cytotoxicity against BRCA2 deficient Chinese hamster VC8 cells after 3 days by CCK8 or SRB assay. Conditions: Cricetulus griseus, V-C8, 72 h. It is filed as functional, cell-based.
Data set [17] concerns MDA-MB-436. In words: Induction of apoptosis in human MDA-MB-436 cells assessed as early apoptotic cells at 1 uM after 96 hrs in presence of pancaspase inhibitor Z-VAD-FMK by Annexin V-FITC/propidium iodide double-staining based flow cytometery (reference value: 2.32%). It is filed as functional.
For data set [18], the system named is CAPAN-1. In words: Cell cycle arrest in human Capan1 cells assessed as accumulation at S phase at 1 uM after 72 hrs by propidium iodide-staining based flow cytometry (reference value: 21.42%). Type of data set: functional.
The nature of data set [19]: Elimination half-life in mouse liver microsomes at 2 uM up to 60 mins by LC-MS/MS analysis. Type of data set: ADME, microsome. Conditions: read-out: beta t1/2.
Data set [20] concerns the target T1, Poly [ADP-ribose] polymerase 1. In words: Inhibition of PARP1 in human Capan1 cells assessed as increase in formation of phosphorylated ATM foci in cells at 10 uM after 48 hrs by confocal microscopy. It is filed as cell-based.
A short description of data set [21]: Clearance in Sprague-Dawley rat at 5 mg/kg, iv by LC-MS/MS analysis. It is filed as ADME, organism-based. Conditions: in vivo.

Structures are written as SMILES. The source made the active and inactive calls. The rule behind the calls is not given here.

As for `N#Cc1cccnc1N1CCN(C(=O)c2cc(Cc3n[nH]c(=O)c4ccccc34)cc(F)c2F)CC1`, the recovery at 2 h in [1] came to 109%. The Activity in the data set on CAPAN-1 [2] was 72.45%; in the data set on MDA-MB-436 [3], “Dose-dependent effect”; in the data set with Mus musculus, “Non-Toxic”; in the data set on MDA-MB-436 [7] it was 7.09%; in the data set on MDA-MB-436 [11], 6.48%; in the data set with MDA-MB-436 [12] it was 29.32%. Moreover, the Activity with CAPAN-1 [14] amounted to 22.4%; with MDA-MB-436 [15], 32.34%; in the data set with MDA-MB-436 [17], 6.61%; in the data set with CAPAN-1 [18], 27.67%. The molecule also came in with an AUC in data set [4] of 130 ng·h/mL. Also, the inhibition in vivo at 40 mg/kg in the data set with CAPAN-1 [5] is 48.1%. The concentration for half-maximal inhibition (IC50) was 10000 to 10300 nM in the data set on V79, 1.3 nM in data set [13] and 0.003 nM in data set [16]. The molecule further gave a Vd in data set [6] of 27.5 L/kg. The apparent permeability from apical to basolateral (Papp A→B) at 2 h in data set [8] was found to be 6.8 ×10⁻⁶ cm/s. In data set [9], the efflux ratio at 2 h amounted to 5. Also, the inhibition entry in data set [10] and in data set [20] was “Active” throughout. The half-life at 2 µM in data set [19] worked out at 3 min. The molecule also gave a clearance in data set [21] of 60 mL/min/kg.

Source of the values: ChEMBL document CHEMBL4130350, “Discovery, mechanism and metabolism studies of 2,3-difluorophenyl-linker-containing PARP1 inhibitors with enhanced in vivo efficacy for cancer therapy” (Eur J Med Chem, 2017).
